Source: ChEMBL document CHEMBL3886595, “Compounds and compositions for inhibiting the activity of ABL1, ABL2 and BCR-ABL1” (2016)

Experiments:
[1] = target: T1, Tyrosine-protein kinase ABL1 (Homo sapiens, UniProt P00519); assay: Radio ABL1 (64-515) Assay: For determination of ABL kinase activity, the radiometric filter-binding assay was used. The assay was performed by mixing 10 uL of the compound pre-diluted with 10 uL of ATP (20 uM ATP with 0.1 uCi [γ-33P]-ATP) with the phospho-acceptor peptide poly[Ala6Glu2LysHBr5Tyr1]=polyAEKY) in 20 mM Tris/HCl pH 7.5, 1 mM DTT, 10 mM MgCl2, 0.01 mM Na3VO4, 50 mM NaCl. 10 uL of …
Description: 10 uL of enzyme (ranging between 5 nM to 20 nM) was added to initiate the reaction. Pre-incubation of enzyme with compounds (when stated) was performed by exposing the enzyme to compounds prior to addition of the substrate mixture (ATP and/or peptide substrate). […] Filter-plates were washed 3x with 0.5% H3PO4, followed by addition of 30 uL scintillation cocktail (Microscint, Perkin Elmer) per well and then analysed in a TopCount NXT scintillation counter (Perkin Elmer).

[2] = target: T1, Tyrosine-protein kinase ABL1; assay: Caliper ABL : The assay plates were prepared by addition of 50 nL per well of compound solution in 90% DMSO. The kinase reactions were started by stepwise addition of 4.5 uL per well of peptide/ATP-solution (50 mM HEPES, pH 7.5, 1 mM DTT, 0.02% BSA, 0.6% DMSO, 10 mM beta-glycerophosphate, and 10 uM sodium orthovanadate, 20 mM MgCl2, 2 mM MnCl2, 4 uM ATP, 4 uM peptide (FITC-Ahx-EAIYAAPFAKKK-NH2)) …

T1 sequence (P00519 whole entry): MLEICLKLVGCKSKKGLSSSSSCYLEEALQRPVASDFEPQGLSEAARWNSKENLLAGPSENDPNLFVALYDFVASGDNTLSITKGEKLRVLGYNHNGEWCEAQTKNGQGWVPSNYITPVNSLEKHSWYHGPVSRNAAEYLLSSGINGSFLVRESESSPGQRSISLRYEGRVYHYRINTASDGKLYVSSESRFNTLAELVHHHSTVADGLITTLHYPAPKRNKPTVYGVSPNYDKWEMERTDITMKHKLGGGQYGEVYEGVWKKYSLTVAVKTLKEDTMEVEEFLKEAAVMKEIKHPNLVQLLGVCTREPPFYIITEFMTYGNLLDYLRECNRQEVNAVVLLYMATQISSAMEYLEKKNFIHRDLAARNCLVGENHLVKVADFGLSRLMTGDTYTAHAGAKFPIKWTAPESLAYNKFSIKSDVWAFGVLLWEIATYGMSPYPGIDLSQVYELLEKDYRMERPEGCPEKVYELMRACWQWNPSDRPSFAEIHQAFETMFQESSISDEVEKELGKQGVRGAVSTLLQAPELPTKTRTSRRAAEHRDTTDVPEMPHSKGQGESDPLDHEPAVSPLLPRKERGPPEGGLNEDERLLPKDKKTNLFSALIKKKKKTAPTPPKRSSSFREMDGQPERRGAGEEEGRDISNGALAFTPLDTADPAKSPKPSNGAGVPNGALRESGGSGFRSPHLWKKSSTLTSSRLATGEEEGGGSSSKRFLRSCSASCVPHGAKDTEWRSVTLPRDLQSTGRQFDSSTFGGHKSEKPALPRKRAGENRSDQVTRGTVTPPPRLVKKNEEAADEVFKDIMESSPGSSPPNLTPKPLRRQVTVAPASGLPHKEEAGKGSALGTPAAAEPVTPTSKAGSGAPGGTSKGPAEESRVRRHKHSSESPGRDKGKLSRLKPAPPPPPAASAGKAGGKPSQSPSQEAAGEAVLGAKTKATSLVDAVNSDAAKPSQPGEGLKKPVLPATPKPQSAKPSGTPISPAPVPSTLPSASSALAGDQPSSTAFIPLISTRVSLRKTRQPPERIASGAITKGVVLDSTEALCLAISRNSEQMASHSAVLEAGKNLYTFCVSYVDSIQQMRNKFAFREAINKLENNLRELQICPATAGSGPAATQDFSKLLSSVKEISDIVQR

Row | Structure (SMILES) | IC50 [1] | IC50 [2]
1 | Cc1ccc(-c2cc(C(=O)Nc3ccc(OC(F)(F)F)cc3)cnc2N2CC[C@H](N)C2)cn1 | 7 nM | –
2 | O=C(Nc1ccc(OC(F)(F)F)cc1)c1cnc(N2CC[C@H](CO)C2)c(-c2cncc(F)c2)c1 | 6.3 nM | 0.6 nM
